From patent US4874780A, “Anticancer compounds” (Norsk Hydro a.s., priority 1987, dated 1989)
Read-outs that look alike come from different tables or passages of the source.

Key:
NHIK 3025 cells [1] = details: Pettersen et al. 1983, cited from earlier work
mucous membranes = details: pure form; cited from earlier work
NHIK 3025 cells [2] = details: Pettersen et al. 1983, cited from earlier work; remark: listed apart in the source
NHIK 3025 cells [3] = details: previous studies; cited from earlier work
NHIK 3025 cells [4] = assay: Duration of mitosis of synchronized cells; type: cell-based, human; details: 3.2 mM during mitosis
Excerpt: (§1) Human cells of the established line NHIK 3025, originating from a cervical carcinoma in situ (Nordbye, K., and Oftebro, R. Exp. Cell Res., 58: 458, 1969), Oftebro, R., and Nordbye, K., Exp. Cell Res., 58: 459-460, 1969) were cultivated in Medium E2a (Puck, T.T. et al., J. Exp. Med., 106:145-165, 1957) supplemented with 20% human (prepared at the laboratory) and 10% horse serum (Grand Island Biological Co.). The cells are routinely grown as monolayers in tissue culture flasks.
(§2) The cells were kept in continuous exponential growth by frequent reculturing, i.e., every second and third day, and synchronized cell populations with a high degree of synchrony were obtained by repeated selection of mitotic cells (Pettersen, E. O. et al, Cell Tissue Kinet., 10: 511-522, 1977). During the synchronization procedure, the cells were kept in Medium E2a, and the whole experiment took place in a walk-in incubator at 37° C. Under growth conditions as used here, the NHIK 3025 cells have a medium cell-cycle time of ~18 hr, with medium G1, S1 and G2 durations of ~7, ~8, and ~2.5 hr, respectively.
(§3) For detection of the drug effects on cell-cycle kinetics, the same methods were used as described previously (Lindmo, T., and Pettersen, E. O., Cell Tissue Kinet., 12: 43-57, 1979), (Pettersen, E. O. et al, Eur. J. Cancer Clin. Oncol., 19: 507-514; 1983), (Ronning, O.W. et al., J. Cell. Physiol., 109: 411-419, 1981). Briefly, the selected mitotic cells were seeded into 8 tissue culture flasks (25 sq cm) 5000 cells per flask. The cells divided within 1 hr and attached as doublets to the bottom of the flasks. […] Analyses of durations of mitosis were performed from these observations (Table 4).
This effect is probably directly related to the aldehyde group (Pettersen et al. Cancer Res. 45: 2085-2091, 1985). If the deuterated aldehyde group induces different biological effects from the undeuterated one it is therefore good reason to expect this to be expressed as a difference in effect on cells in mitosis. In Table 4 results are shown on prolongation of mitosis of synchronized cells treated with benzaldehyde or deuterobenzaldehyde-d1 during mitosis. The numbers in the table represent the percentage of the cells having a duration of mitosis below 1 hr (which is normal for untreated cells) or above the number of hours indicated on top of each column.

NHIK 3025 cells [5] = assay: Cell survival (colony formation) after 24 hr treatment; type: cell-based; details: Homo sapiens, NHIK3025, 24 h, read-out: Fraction of cells surviving 24 hr treatment
Excerpt: as §1, §2
For measurement of cell survival, appropriate numbers of cells were seeded in plastic Petri dishes (.phi.=5 cm). The number of cells seeded into each dish was adjusted such that the number of surviving cells would be approximately 150 per dish. While exponentially growing (asynchronous) cells were trypsinized before seeding, synchronized cells were seeded immediately after selection. After about 2 hr, the cells had attached to the bottom of the dishes, and the treatment was started by replacing the medium with medium containing the appropriate drug concentration. After the desired time of treatment, the drug-containing medium was removed, and fresh medium was added. The dishes were rinsed once with the same medium as was to be added on addition or removal of drug. After 10 to 12 days at 37° C. in a CO2 incubator, the cells were fixed in ethanol and stained with methylene blue before the colonies were counted.
The cytotoxic effect of benzaldehyde and of deuterobenzaldehyde-d1 was tested on asynchronous, exponentially growing NHIK 3025 cells by counting the number of cells able to form colonies after 24 hr treatment in Petri dishes. In Table 1 the results represent 2 different, independent experiments where the numbers give the mean fraction of surviving cells from 10 parallel dishes (± standard error).
Fraction of cells surviving 24 hr treatment with benzaldehyde or deuterobenzaldehyde - d1 in Petri dishes. (The values represent the mean±standard error from 10 different dishes.)

NHIK 3025 cells [6] = details: previous studies (Pettersen et al. 1983), cited from earlier work
NHIK 3025 cells [7] = assay: Duration of cell cycle-time of synchronized cells; type: cell-based, human; details: 8 hr treatment
Excerpt: as §1, §2, §3
This is shown by the data in Table 3, where we have used synchronized cells treated over an 8 hr period starting 2 hr after mitotic selection, i.e. when the cells were in early Gl.

NHIK 3025 cells [8] = assay: Protein synthesis rate ((3H)valine incorporation); type: cell-based, human; details: 3.2 mM, 4 hr treatment, Table 2, control 6.8 ± 0.9
Excerpt: as §1, §2
The rate of protein synthesis was calculated as described previously (Ronning, O. W. et al., J. Cell Physiol., 107: 47-57, 1981). Briefly, cellular protein was labeled to saturation during a 2-day preincubation with (^14 C)valine of constant specific radioactivity (0.5 Ci/mol) prior to the experiment. This was achieved by using a high concentration of valine so that the dilution of (^14 C)valine by intracellular valine and by proteolytically generated valine will be negligible (Ronning, O. W., et al. Exp. Cell Res. 123: 63-72, 1979), thus keeping the specific radioactivity at a constant level. The rate of protein synthesis was calculated from the incorporation of (3H)valine of constant specific activity. The incorporation measurements were related to the total of (^14 C) radioactivity in protein at the beginning of the respective measurement periods and expressed as the percentage per hr (Ronning, O. W. et al, J. Cell, Physiol. 107: 47-57, 1981).
[…] The last measurements were done to test the reversibility of the drugs. Drug concentration: 3.2 mM.

SMILES: O=Cc1ccccc1 [Benzaldehyde]
- Protein synthesis inhibition (in words) (NHIK 3025 cells [1]): inhibit protein sythesis in a reversible manner
- Protein synthesis inhibition (in words) (NHIK 3025 cells [1]; listed as benzaldehyde): protein synthesis inhibition
- Irritating effect on mucous membranes (mucous membranes): strongly irritating effect on mucous membranes
- Cell cycle progression (in words) (NHIK 3025 cells [2]): inhibits cell cycle progression
- Cell cycle progression (in words) (NHIK 3025 cells [2]; listed as benzaldehyde): cell-cycle progression is reduced
- Inactivation of cells treated during mitosis (in words) (NHIK 3025 cells [3]): inactivated efficiently by benzaldehyde
- Percentage of cells with duration of mitosis >4 h (NHIK 3025 cells [4]): 49%
- Percentage of cells with duration of mitosis >5 h (NHIK 3025 cells [4]): 35%
- Percentage of cells with duration of mitosis >6 h (NHIK 3025 cells [4]): 21%
- Percentage of cells with duration of mitosis >3 h (NHIK 3025 cells [4]; control 2%): 70%
- Percentage of cells with duration of mitosis >2 h (NHIK 3025 cells [4]; control 4%): 87%
- Percentage of cells with duration of mitosis >1 h (NHIK 3025 cells [4]; control 17%): 95%
- Percentage of cells with duration of mitosis <1 h (NHIK 3025 cells [4]; control 83%): 5%
- viability at 3200 µM (NHIK 3025 cells [5]): 64 ± 18%
- viability at 12800 µM (NHIK 3025 cells [5]): 2.4 ± 0.8%
- Inhibition during mitosis (in words) (NHIK 3025 cells [6]): induces specific inhibition during mitosis
- Inhibition during mitosis (in words) (NHIK 3025 cells [6]; listed as benzaldehyde): specific prolongation of mitosis
- Prolongation (NHIK 3025 cells [7]; 2 mM, versus control 1): 7.9%
- Duration of the part of the cell cycle starting 2 hr after selection (NHIK 3025 cells [7]; 2 mM, control 1 16.5): 17.8
- Prolongation (NHIK 3025 cells [7]; 2.5 mM, versus control 2): 63.7%
- Duration of the part of the cell cycle starting 2 hr after selection (NHIK 3025 cells [7]; 2.5 mM, control 2 16.8): 27.5
- Protein synthesis (NHIK 3025 cells [8]; pulse 0-1, during treatment): 3.7 ± 0.3 %/hr
- Protein synthesis (NHIK 3025 cells [8]; pulse 4-5, after treatment): 5.1 ± 0.3 %/hr
- Protein synthesis (NHIK 3025 cells [8]; pulse 5-6, after treatment): 6.7 ± 0.5 %/hr
